Test results from US9334264B2, “NAMPT inhibitors” (AbbVie Inc., priority 2012, dated 2016).
pIC50: −log10 of the molar value.

Tests used:
NAMPT = NAMPT (Homo sapiens, UniProt P43490); experiment: Time-Resolved Fluorescence Resonance Energy Transfer (TR-FRET) Binding Assay of NAMPT with PRPP; settings: 200 μM PRPP and 2.5 mM ATP; 2 nM NAMPT, 2 nM probe, equilibrated 16 hours
Experimental: Time-Resolved Fluorescence Resonance Energy Transfer (TR-FRET) Binding Assay of NAMPT with PRPP
Compound handling and data processing were identical to the assay in the absence of substrates (above). Final concentrations were 1× assay buffer, 2% DMSO, 2 nM NAMPT, 2 nM probe, 1 nM Tb-anti-His antibody (Invitrogen #PV5895), 200 μM PRPP and 2.5 mM ATP. Reactions were equilibrated for 16 hours prior to measurement to allow for potential enzymatic modification of test compounds.

[1] = molecular target: NAMPT (human, recombinant, C-terminally His-tagged) (Homo sapiens, UniProt P43490); experiment: Time-Resolved Fluorescence Resonance Energy Transfer (TR-FRET) Binding Assay of NAMPT; settings: absence of substrates; 6.8 nM NAMPT, 200 nM probe, equilibrated 3 hours
Chain of NAMPT (human, recombinant, C-terminally His-tagged) (P43490 whole entry): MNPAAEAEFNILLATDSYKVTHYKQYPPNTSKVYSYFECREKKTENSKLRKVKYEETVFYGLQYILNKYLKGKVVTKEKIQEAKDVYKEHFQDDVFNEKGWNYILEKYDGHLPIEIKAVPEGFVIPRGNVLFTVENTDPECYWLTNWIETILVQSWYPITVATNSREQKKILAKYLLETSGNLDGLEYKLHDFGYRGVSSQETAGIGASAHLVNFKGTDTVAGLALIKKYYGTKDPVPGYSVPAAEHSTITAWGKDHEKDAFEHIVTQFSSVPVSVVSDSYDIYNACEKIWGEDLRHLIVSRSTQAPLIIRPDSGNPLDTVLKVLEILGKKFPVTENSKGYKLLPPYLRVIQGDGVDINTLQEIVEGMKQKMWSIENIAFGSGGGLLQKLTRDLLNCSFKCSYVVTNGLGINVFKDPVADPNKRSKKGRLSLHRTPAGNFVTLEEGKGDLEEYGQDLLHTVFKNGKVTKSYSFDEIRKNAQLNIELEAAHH
Experimental: Determination of the utility of compounds having Formula (I) as binders to and inhibitors of NAMPT was performed using Time-Resolved Fluorescence Resonance Energy Transfer (TR-FRET) binding assays.
Time-Resolved Fluorescence Resonance Energy Transfer (TR-FRET) Binding Assay of NAMPT
Test compounds were serially diluted (typically 11 half log dilutions) in neat DMSO to 50× final concentrations prior to dilution with assay buffer (50 mM HEPES (NaOH), pH 7.5, 100 mM NaCl, 10 mM MgCl2, 1 mM DTT, 1% Glycerol) to 3× and 6% DMSO. Six μL were transferred to 384-well low-volume plates (Owens Corning #3673). To this, 12 μL of a 1.5× solution containing enzyme, probe and antibody were added. Final concentrations in the 18 μL reactions were 1× assay buffer, 2% DMSO, 6.8 nM NAMPT (human, recombinant, C-terminally His-tagged), 200 nM probe (a potent nicotinamide-competitive inhibitor conjugated to Oregon Green 488) and 1 nM Tb-anti-His antibody (Invitrogen #PV5895). Reactions were equilibrated at room temperature for 3 hours prior to reading on an Envision multi-label plate reader (Perkin Elmer; Ex=337 nm, Em=520 and 495 nm). Time-resolved FRET ratios (Em520/Em495) were normalized to controls, plotted as a function of compound concentration and fit with the four-parameter logistic equation to determine IC50s.

Chain of NAMPT (P43490 whole entry): as above

| Compound | pIC50 (NAMPT) | pIC50 [1] |
| --- | --- | --- |
| CC(C)CCN(C(=O)CC1CCOCC1)c1ncc(C(=O)NCCCn2ccnc2)s1 [Example 154, N-[3-(1H-imidazol-1-yl)propyl]-2-[(3-methylbutyl)(tetrahydro-2H-pyran-4-ylacetyl)amino]-1,3-thiazole-5-carboxamide] | 9.29 | 6.64 |
| N#Cc1ccc(CN(C(=O)NCCCN2CC(O)C2)c2ncc(C(=O)NCCCn3ccnc3)s2)cc1 [Example 149, 2-[(4-cyanobenzyl){[3-(3-hydroxyazetidin-1-yl)propyl]carbamoyl}amino]-N-[3-(1H-imidazol-1-yl)propyl]-1,3-thiazole-5-carboxamide] | 7.03 | < 5.00 |
| CC(C)CCN(C(=O)[C@@H](C)Oc1ccccc1)c1ncc(C(=O)NCCCn2ccnc2)s1 [Example 133, N-[3-(1H-imidazol-1-yl)propyl]-2-{(3-methylbutyl)[(2R)-2-phenoxypropanoyl]amino}-1,3-thiazole-5-carboxamide] | 9.28 | 7.23 |
| O=C(NCCCn1ccnc1)c1cnc(N(Cc2ccc(F)cc2)C(=O)NCC2OCCO2)s1 [Example 86, 2-{[(1,3-dioxolan-2-ylmethyl)carbamoyl](4-fluorobenzyl)amino}-N-[3-(1H-imidazol-1-yl)propyl]-1,3-thiazole-5-carboxamide] | 8.58 | < 5.00 |
| N#Cc1ccc(C(=O)N(Cc2ccc(F)cc2)c2ncc(C(=O)NCCCn3ccnc3)s2)cc1 [Example 11, 2-[(4-cyanobenzoyl)(4-fluorobenzyl)amino]-N-[3-(1H-imidazol-1-yl)propyl]-1,3-thiazole-5-carboxamide] | 9.33 | 6.32 |
| CC(C)CCN(C(=O)C(C)c1ccccc1)c1ncc(C(=O)NCCCn2ccnc2)s1 (stereo not shown) [Example 138, N-[3-(1H-imidazol-1-yl)propyl]-2-[(3-methylbutyl)(2-phenylpropanoyl)amino]-1,3-thiazole-5-carboxamide] | 9.27 | 7.26 |
| COCCC(=O)N(CCC1OCCO1)c1ncc(C(=O)NCCCn2ccnc2)s1 [Example 180, 2-{[2-(1,3-dioxolan-2-yl)ethyl](3-methoxypropanoyl)amino}-N-[3-(1H-imidazol-1-yl)propyl]-1,3-thiazole-5-carboxamide] | 9.48 | 5.11 |
| COCCC(=O)N(CCC(=O)N1CCCC1)c1ncc(C(=O)NCCCn2ccnc2)s1 [Example 195, N-[3-(1H-imidazol-1-yl)propyl]-2-{(3-methoxypropanoyl)[3-oxo-3-(pyrrolidin-1-yl)propyl]amino}-1,3-thiazole-5-carboxamide] | 9.47 | < 5.00 |
| COCCC(=O)N(CCc1ccc(Cl)cn1)c1ncc(C(=O)NCCCn2ccnc2)s1 [Example 207, 2-{[2-(5-chloropyridin-2-yl)ethyl](3-methoxypropanoyl)amino}-N-[3-(1H-imidazol-1-yl)propyl]-1,3-thiazole-5-carboxamide] | 9.48 | 5.41 |
| O=C(NCCCn1ccnc1)c1cnc(N(Cc2ccc(F)cc2)C(=O)NCC2CCCCO2)s1 (stereo not shown) [Example 81, 2-{(4-fluorobenzyl)[(tetrahydro-2H-pyran-2-ylmethyl)carbamoyl]amino}-N-[3-(1H-imidazol-1-yl)propyl]-1,3-thiazole-5-carboxamide] | 8.75 | 5.28 |
| COCCC(=O)N(Cc1ccccn1)c1ncc(C(=O)NCCCn2ccnc2)s1 [Example 121, N-[3-(1H-imidazol-1-yl)propyl]-2-[(3-methoxypropanoyl)(pyridin-2-ylmethyl)amino]-1,3-thiazole-5-carboxamide] | 8.03 | < 5.00 |
| COCCC(=O)N(CCc1ccc(Cl)cc1)c1ncc(C(=O)NCCCn2ccnc2)s1 [Example 103, 2-{[2-(4-chlorophenyl)ethyl](3-methoxypropanoyl)amino}-N-[3-(1H-imidazol-1-yl)propyl]-1,3-thiazole-5-carboxamide acetate (1:1)] | 8.51 | 6.15 |
| O=C(NCCCn1ccnc1)c1cnc(N2C[C@H](CN3C(=O)c4ccccc4C3=O)OC2=O)s1 [Example 212, 2-{(5S)-5-[(1,3-dioxo-1,3-dihydro-2H-isoindol-2-yl)methyl]-2-oxo-1,3-oxazolidin-3-yl}-N-[3-(1H-imidazol-1-yl)propyl]-1,3-thiazole-5-carboxamide] | 8.99 | 5.24 |
| CCOC(=O)CC(C)NC(=O)N(Cc1ccc(C#N)cc1)c1ncc(C(=O)NCCCn2ccnc2)s1 (stereo not shown) [Example 161, ethyl 3-{[(4-cyanobenzyl)(5-{[3-(1H-imidazol-1-yl)propyl]carbamoyl}-1,3-thiazol-2-yl)carbamoyl]amino}butanoate] | 6.67 | < 5.00 |
| CCC(COC)NC(=O)N(Cc1ccc(F)cc1)c1ncc(C(=O)NCCCn2ccnc2)s1 (stereo not shown) [Example 84, 2-{(4-fluorobenzyl)[(1-methoxybutan-2-yl)carbamoyl]amino}-N-[3-(1H-imidazol-1-yl)propyl]-1,3-thiazole-5-carboxamide] | 8.76 | 5.49 |
| O=C(NCCCn1ccnc1)c1cnc(N(Cc2ccc(F)cc2)C(=O)CC2CCCCC2)s1 [Example 5, 2-[(cyclohexylacetyl)(4-fluorobenzyl)amino]-N-[3-(1H-imidazol-1-yl)propyl]-1,3-thiazole-5-carboxamide] | 9.34 | 6.14 |
| CCOC(=O)C(C)(C)CNC(=O)N(Cc1ccc(C#N)cc1)c1ncc(C(=O)NCCCn2ccnc2)s1 [Example 163, ethyl 3-{[(4-cyanobenzyl)(5-{[3-(1H-imidazol-1-yl)propyl]carbamoyl}-1,3-thiazol-2-yl)carbamoyl]amino}-2,2-dimethylpropanoate] | 6.77 | 5.17 |
| COCCC(=O)N(Cc1ncccn1)c1ncc(C(=O)NCCCn2ccnc2)s1 [Example 93, N-[3-(1H-imidazol-1-yl)propyl]-2-[(3-methoxypropanoyl)(pyrimidin-2-ylmethyl)amino]-1,3-thiazole-5-carboxamide] | 7.78 | < 5.00 |
| CN(C)CC(=O)N(Cc1ccc(F)cc1)c1ncc(C(=O)NCCCn2ccnc2)s1 [Example 26, 2-[(N,N-dimethylglycyl)(4-fluorobenzyl)amino]-N-[3-(1H-imidazol-1-yl)propyl]-1,3-thiazole-5-carboxamide] | 8.92 |  |
| COCCC(=O)N(CC1COCCO1)c1ncc(C(=O)NCCCn2ccnc2)s1 (stereo not shown) [Example 181, 2-[(1,4-dioxan-2-ylmethyl)(3-methoxypropanoyl)amino]-N-[3-(1H-imidazol-1-yl)propyl]-1,3-thiazole-5-carboxamide] | 9.25 | < 5.00 |
| O=C(NCCCn1ccnc1)c1cnc(N(Cc2ccc(F)cc2)Cc2c(Cl)ccc3c2OCO3)s1 [Example 14, 2-{[(5-chloro-1,3-benzodioxol-4-yl)methyl](4-fluorobenzyl)amino}-N-[3-(1H-imidazol-1-yl)propyl]-1,3-thiazole-5-carboxamide] | 6.47 |  |
| CN(Cc1ccc(F)cc1)c1ncc(C(=O)NCCCn2ccnc2)s1 [Example 3, 2-[(4-fluorobenzyl)(methyl)amino]-N-[3-(1H-imidazol-1-yl)propyl]-1,3-thiazole-5-carboxamide] | 7.15 |  |
| CN(C)C(=O)CN(Cc1ccc(F)cc1)c1ncc(C(=O)NCCCn2ccnc2)s1 [Example 20, 2-{[2-(dimethylamino)-2-oxoethyl](4-fluorobenzyl)amino}-N-[3-(1H-imidazol-1-yl)propyl]-1,3-thiazole-5-carboxamide] | 4.90 |  |
| O=C(NCCCn1ccnc1)c1cnc(N(Cc2ccc(F)cc2)Cc2ccc(-c3cccnc3)cc2)s1 [Example 1, 2-{(4-fluorobenzyl)[4-(pyridin-3-yl)benzyl]amino}-N-[3-(1H-imidazol-1-yl)propyl]-1,3-thiazole-5-carboxamide] |  | 7.20 |
| O=C(NCCCn1ccnc1)c1cnc(N(Cc2ccc(F)cc2)Cc2cc(Cl)ccc2Cl)s1 [Example 17, 2-[(2,5-dichlorobenzyl)(4-fluorobenzyl)amino]-N-[3-(1H-imidazol-1-yl)propyl]-1,3-thiazole-5-carboxamide] | 5.91 |  |
| CC(C)NC(=O)CN(Cc1ccc(F)cc1)c1ncc(C(=O)NCCCn2ccnc2)s1 [Example 19, 2-{(4-fluorobenzyl)[2-oxo-2-(propan-2-ylamino)ethyl]amino}-N-[3-(1H-imidazol-1-yl)propyl]-1,3-thiazole-5-carboxamide] | 4.90 |  |
| O=C(NCCCn1ccnc1)c1cnc(N(CCN2CCCC2)Cc2ccc(F)cc2)s1 [Example 9, 2-{(4-fluorobenzyl)[2-(pyrrolidin-1-yl)ethyl]amino}-N-[3-(1H-imidazol-1-yl)propyl]-1,3-thiazole-5-carboxamide] | 6.19 |  |
